From ChEMBL document CHEMBL1136533, “Hemisynthesis and preliminary evaluation of novel endocannabinoid analogues” (Bioorg Med Chem Lett, 2003)

Key:
[1] = molecular target: T1, Fatty-acid amide hydrolase 1 (Rattus norvegicus) (UniProt P97612); assay: Inhibitory effect on the Fatty-acid amide hydrolase (FAAH) activity was determined by % inhibition of anandamide hydrolysis at 10 uM concentration of compound; assay type: functional
T1 sequence (whole entry): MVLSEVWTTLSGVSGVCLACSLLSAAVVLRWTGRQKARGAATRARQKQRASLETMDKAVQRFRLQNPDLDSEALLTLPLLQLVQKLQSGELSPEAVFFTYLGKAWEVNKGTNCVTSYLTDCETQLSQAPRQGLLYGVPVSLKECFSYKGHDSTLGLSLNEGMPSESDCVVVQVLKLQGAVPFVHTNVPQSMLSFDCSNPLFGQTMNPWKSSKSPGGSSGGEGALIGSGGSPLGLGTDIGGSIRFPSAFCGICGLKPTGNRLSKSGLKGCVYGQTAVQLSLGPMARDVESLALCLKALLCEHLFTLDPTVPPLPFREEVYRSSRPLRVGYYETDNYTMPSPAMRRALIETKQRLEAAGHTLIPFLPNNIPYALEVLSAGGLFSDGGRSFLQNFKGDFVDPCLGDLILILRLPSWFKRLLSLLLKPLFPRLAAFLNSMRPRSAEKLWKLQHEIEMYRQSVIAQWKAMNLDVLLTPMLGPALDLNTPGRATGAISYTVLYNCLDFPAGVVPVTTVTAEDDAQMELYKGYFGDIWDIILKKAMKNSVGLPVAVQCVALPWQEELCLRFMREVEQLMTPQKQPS

[2] = molecular target: T1, Fatty-acid amide hydrolase 1 (Rattus norvegicus); assay: Inhibitory effect on the Fatty-acid amide hydrolase (FAAH) activity was determined by % inhibition of anandamide hydrolysis at 1 uM concentration of compound; assay type: functional
[3] = molecular target: Cannabinoid receptor 1 (Rattus norvegicus) (UniProt P20272); assay: Percentage affinity towards Cannabinoid receptor 1 using [3H]CP-55940 as radioligand in rat forebrain membranes; assay type: cell membranes; conditions: Membrane
Cannabinoid receptor 1 = Cannabinoid receptor 1 (Rattus norvegicus, UniProt P20272); assay: Binding affinity towards Cannabinoid receptor 1 in rat forebrain membranes using [3H]CP-55940 as radioligand; assay type: cell membranes, Membrane
[4] = molecular target: T2, Fatty-acid amide hydrolase 1 (Rattus norvegicus, UniProt P97612); assay: Binding affinity towards Fatty-acid amide hydrolase (FAAH) in rat forebrain membranes; assay type: cell membranes, Membrane
T2 sequence (P97612 whole entry): T1 sequence (whole entry)

Sequence of Cannabinoid receptor 1 (P20272 whole entry): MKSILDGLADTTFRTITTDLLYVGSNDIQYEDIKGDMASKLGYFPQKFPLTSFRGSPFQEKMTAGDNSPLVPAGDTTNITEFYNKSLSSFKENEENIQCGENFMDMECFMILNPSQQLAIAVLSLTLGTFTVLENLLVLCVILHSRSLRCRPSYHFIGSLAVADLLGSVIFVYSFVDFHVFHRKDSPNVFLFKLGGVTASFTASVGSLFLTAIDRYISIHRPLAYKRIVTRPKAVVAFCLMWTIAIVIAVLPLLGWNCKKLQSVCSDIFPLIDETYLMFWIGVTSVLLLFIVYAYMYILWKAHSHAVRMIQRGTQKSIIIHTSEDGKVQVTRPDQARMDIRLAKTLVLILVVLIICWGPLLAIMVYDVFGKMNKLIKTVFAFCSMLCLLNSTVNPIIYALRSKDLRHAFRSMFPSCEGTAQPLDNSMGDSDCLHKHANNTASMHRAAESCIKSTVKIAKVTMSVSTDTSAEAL
Sequence of Cannabinoid receptor 1 (Rattus norvegicus) (P20272 whole entry): as above

SMILES | Inhibition of anandamide hydrolysis [1] [%] | Inhibition of anandamide hydrolysis [2] [%] | Affinity [3] [%] | Ki (Cannabinoid receptor 1) [µM] | Ki [4] [µM]
CCCCC/C=C\C/C=C\CCCCCCCC(=O)CCCO | 100 | 100 | 72 | – | –
CCCCC/C=C\C/C=C\C/C=C\C/C=C\CCCC(=O)CCCO | 78 | 91 | 38 | 0.36 | –
CCCCC/C=C\C/C=C\C/C=C\C/C=C\CCC(C)(C)C(=O)OCCO | 12 | 90 | 100 | > 10 | 2.1
CCCCC/C=C\C/C=C\C/C=C\C/C=C\CCCC(=O)NCCO [ANANDAMIDE] | – | – | 19 | – | 3
CCCCC/C=C\C/C=C\C/C=C\C/C=C\CCCC(=O)OCCO | 70 | 100 | 83 | > 10 | –
